Assay results from patent publication US6737383B1, “Herbicidal oxadiazolidines” (priority 1999, dated 2004).

Key:
[1] = test system: bedstraw; experiment: Test B pre/postemergence bedstraw; assay type: in vivo, Galium aparine; settings: Preemergence
Method in brief: (§1)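 Response is a visual 0-to-10 score relative to untreated plants, where 0 means no effect and 10 means complete control, taken twelve to sixteen days after application. Treatments went onto soil at planting and onto foliage of 1- to 4-leaf plants, using a surfactant-containing non-phytotoxic solvent.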

[2] = test system: morningglory; experiment: Test B pre/postemergence morningglory; assay type: in vivo, Ipomoea hederacea
Method in brief: as §1

[3] = test system: cocklebur; experiment: Test B pre/postemergence cocklebur; assay type: in vivo, Xanthium strumarium
Method in brief: as §1

[4] = test system: blackgrass; experiment: Test B pre/postemergence blackgrass; assay type: in vivo, Alopecurus myosuroides
Method in brief: as §1

[5] = test system: smallflower flatsedge; experiment: Test B flood test smallflower flatsedge; assay type: in vivo, Cyperus difformis
Method in brief: (§2)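 Each value is a visual injury score relative to controls, with 10 meaning complete control and 0 no effect. Evaluation took place twelve to sixteen days after the 2-leaf-stage plants were treated and kept in the greenhouse.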

[6] = test system: corn; experiment: Test B pre/postemergence corn; assay type: in vivo, Zea mays
Method in brief: as §1

[7] = test system: crabgrass; experiment: Test B pre/postemergence crabgrass; assay type: in vivo, Digitaria sanguinalis
Method in brief: as §1

[8] = test system: giant foxtail; experiment: Test B pre/postemergence giant foxtail; assay type: in vivo, Setaria faberii
Method in brief: as §1

[9] = test system: rape; experiment: Test B pre/postemergence rape; assay type: in vivo, Brassica napus
Method in brief: as §1

[10] = test system: wild oat; experiment: Test B pre/postemergence wild oat; assay type: in vivo, Avena fatua
Method in brief: as §1

[11] = test system: velvetleaf; experiment: Test B pre/postemergence velvetleaf; assay type: in vivo, Abutilon theophrasti
Method in brief: as §1

[12] = test system: pigweed; experiment: Test B pre/postemergence pigweed; assay type: in vivo, Amaranthus retroflexus
Method in brief: as §1

[13] = test system: rice; experiment: Test B flood test rice; assay type: in vivo, Oryza sativa
Method in brief: as §2

[14] = test system: bamyardgrass; experiment: Test B flood test barnyardgrass; assay type: in vivo, Echinochloa crus-galli
Method in brief: as §2

[15] = test system: surinam grass; experiment: Test B pre/postemergence surinam grass; assay type: in vivo, Brachiaria decumbens
Method in brief: as §1

[16] = test system: sugar beet; experiment: Test B pre/postemergence sugar beet; assay type: in vivo, Beta vulgaris
Method in brief: as §1

[17] = Postemergence, Rate 250 g/ha, scale 0 to 10, 0 is no effect, 10 is complete control
[18] = Postemergence, Rate 500 g/ha, scale of 0 to 10 where 0 is no effect and 10 is complete control
[19] = Preemergence, Rate 62 g/ha, scale 0 to 10 (0 no effect, 10 complete control)
[20] = Preemergence, Rate 125 g/ha, scale of 0 to 10 where 0 is no effect and 10 is complete control
[21] = Preemergence, Rate 250 g/ha, scale 0 to 10, 0 is no effect, 10 is complete control
[22] = Preemergence, Rate 500 g/ha, scale 0 to 10, 0 is no effect, 10 is complete control
[23] = Rate 62 g/ha, Postemergence, scale of 0 to 10 where 0 is no effect and 10 is complete control
[24] = Postemergence, Rate 125 g/ha, scale 0 to 10, 0 is no effect, 10 is complete control
[25] = Preemergence, Rate 250 g/ha, scale of 0 to 10 where 0 is no effect and 10 is complete control
[26] = Rate 62 g/ha, flood test species, Pre-emergence, visual evaluation after twelve to sixteen days
[27] = Rate 125 g/ha, under heading Pre-emergence, flood test species, visual evaluation after twelve to sixteen days
[28] = Rate 250 g/ha, Pre-emergence, flood-test species, scale 0 to 10, 0 is no effect, 10 is complete control
[29] = Rate 500 g/ha, Pre-emergence, flood test species, scale 0 to 10 (0 no effect, 10 complete control)

Cc1nc(Cl)sc1C(C)n1c(=O)on(C(=O)N(c2ccc(F)cc2)C(C)C)c1=O (stereo not drawn) [Compound 401]
7: Morningglory plant response rating [2, 18] | Giant foxtail plant response rating [8, 21] | Rape plant response rating [9, 18]
2: Blackgrass plant response rating [4, 22] | Plant response rating, Crabgrass [7, 17] | Plant response rating, Crabgrass [7, 20] | Plant response rating, Giant foxtail [8, 17] | Redroot pigweed plant response rating [12, 18]
8: Crabgrass plant response rating [7, 21] | Giant foxtail plant response rating [8, 22]
0: Plant response rating, Bedstraw ([1]; Rate 62 g/ha, scale 0 to 10 (0 no effect, 10 complete control)) | Plant response rating, Bedstraw ([1]; Rate 125 g/ha, scale of 0 to 10 where 0 is no effect and 10 is complete control) | Plant response rating, Morningglory [2, 19] | Plant response rating, Morningglory [2, 20] | Morningglory plant response rating [2, 21] | Morningglory plant response rating [2, 22] | Plant response rating, Cocklebur [3, 24] | Plant response rating, Cocklebur [3, 17] | Plant response rating, Cocklebur [3, 19] | Plant response rating, Cocklebur [3, 20] | Cocklebur plant response rating [3, 21] | Cocklebur plant response rating [3, 22] | Cocklebur plant response rating [3, 23] | Plant response rating, Blackgrass [4, 24] | Plant response rating, Blackgrass [4, 17] | Blackgrass plant response rating [4, 18] | Plant response rating, Blackgrass [4, 19] | Plant response rating, Blackgrass [4, 20] | Blackgrass plant response rating [4, 25] | Blackgrass plant response rating [4, 23] | Plant response rating, S. Flatsedge (0 to 10 scale, 0 is no effect, 10 is complete control) [5, 26] | S. Flatsedge plant response rating (0 to 10 scale, 0 is no effect, 10 is complete control) [5, 27] | S. Flatsedge plant response rating [5, 28] | S. Flatsedge plant response rating [5, 29] | Plant response rating, Corn [6, 24] | Plant response rating, Corn [6, 17] | Corn plant response rating [6, 18] | Plant response rating, Corn [6, 19] | Plant response rating, Corn [6, 20] | Corn plant response rating [6, 21] | Corn plant response rating [6, 22] | Corn plant response rating [6, 23] | Plant response rating, Crabgrass [7, 24] | Plant response rating, Crabgrass [7, 19] | Crabgrass plant response rating [7, 23] | Plant response rating, Giant foxtail [8, 24] | Plant response rating, Giant foxtail [8, 19] | Giant foxtail plant response rating [8, 23] | Plant response rating, Rape [9, 19] | Plant response rating, Rape [9, 20] | Rape plant response rating [9, 21] | Rape plant response rating [9, 22] | Rape plant response rating [9, 23] | Wild oats plant response rating [10, 18] | Plant response rating, Wild oats [10, 19] | Plant response rating, Wild oats [10, 20] | Wild oats plant response rating [10, 21] | Wild oats plant response rating [10, 22] | Wild oats plant response rating [10, 23] | Plant response rating, Velvetleaf [11, 17] | Plant response rating, Velvetleaf [11, 19] | Plant response rating, Velvetleaf [11, 20] | Velvetleaf plant response rating [11, 21] | Velvetleaf plant response rating [11, 22] | Velvetleaf plant response rating [11, 23] | Plant response rating, Redroot pigweed [12, 19] | Plant response rating, Redroot pigweed [12, 20] | Redroot pigweed plant response rating [12, 21] | Redroot pigweed plant response rating [12, 22] | Redroot pigweed plant response rating [12, 23] | Plant response rating, Rice (0 to 10 scale, 0 is no effect, 10 is complete control) [13, 26] | Rice plant response rating (0 to 10 scale, 0 is no effect, 10 is complete control) [13, 27] | Rice plant response rating [13, 28] | Rice plant response rating [13, 29] | Plant response rating, Barnyardgrass (0 to 10 scale, 0 is no effect, 10 is complete control) [14, 26] | Barnyardgrass plant response rating (0 to 10 scale, 0 is no effect, 10 is complete control) [14, 27] | Barnyardgrass plant response rating [14, 28] | Barnyardgrass plant response rating [14, 29] | Plant response rating, B. signalgrass [15, 24] | Plant response rating, B. signalgrass [15, 17] | B. signalgrass plant response rating [15, 18] | Plant response rating, B. signalgrass [15, 19] | Plant response rating, B. signalgrass [15, 20] | B. signalgrass plant response rating [15, 25] | B. signalgrass plant response rating ([15]; Preemergence, Rate 500 g/ha, scale of 0 to 10 where 0 is no effect and 10 is complete control) | B. signalgrass plant response rating [15, 23] | Plant response rating, Sugarbeets [16, 17] | Sugarbeets plant response rating [16, 18] | Plant response rating, Sugarbeets [16, 19] | Plant response rating, Sugarbeets [16, 20] | Sugarbeets plant response rating [16, 21] | Sugarbeets plant response rating [16, 22] | Sugarbeets plant response rating [16, 23]
3: Morningglory plant response rating [2, 23] | Crabgrass plant response rating [7, 18] | Velvetleaf plant response rating [11, 18]
6: Plant response rating, Morningglory [2, 17] | Giant foxtail plant response rating [8, 18] | Plant response rating, Giant foxtail [8, 20]
10: Crabgrass plant response rating [7, 22]
1: Cocklebur plant response rating [3, 18] | Plant response rating, Redroot pigweed [12, 17]
